Measured values: US7414054B2, “3-(arylamino)methylene-1, 3-dihydro-2H-indol-2-ones as kinase inhibitors” (Allergan, Inc., priority 2001, dated 2008)

What was measured:
[1] = tested on: laser-induced choroidal neovascularization; experiment: Laser-induced Choroidal Neovascularization (CNV) in Rat (CNV Assay); type: in vivo
Description: Laser-induced Choroidal Neovascularization (CNV) in Rat (CNV Assay). CNV was induced and quantified in this model as previously described (Edelman and Castro. Exp. Eye Res. 2000; 71:523-533). On day 0, male Brown Norway rats (200-300 g) were anesthetized with 100 mg/kg Ketamine and 10 mg/kg Xylazine, and pupils were dilated with 1% Tropicamide. Using the blue-green setting of a Coherent Novus Argon Laser, 3 laser burns (90 mW for 0.1 s; 100 μm diameter) were given to each eye between the retinal vessels around the optic nerve head. Rats were dosed with test compounds in their indicated vehicles orally once daily.
On day 10, rats were sacrificed with 100% CO2, and blood vessels were labeled by vascular perfusion with 10 mg/ml FITC-dextran (MW 2×10^6). Using an epifluorescence microscope (20×) coupled to a spot digital camera and a PC, images were obtained from the flat mounts of the RPE-choroid-sclera from each eye, and the area occupied by hyperfluorescent neovessels within each laser lesion was measured using ImagePro 4 software.
To determine the dose required for 50% inhibition (ID50), the percent inhibition data was plotted as a function of oral dose, using the ‘best-fit’ analysis within MicroSoft Excel software. The ID50 value was verified visually by using the plotted data (horizontal line from 50% y value, at intersection with best-fit line drop vertical line to x axis (dose)).

[2] = tested on: VEGF induced increases in intracellular calcium levels in HUVEC (human umbilical vein endothelial cells); experiment: VEGF Stimulated Ca++ Signal In Vitro (FLIPR); type: cell-based; details: VEGF 5 ng/mL; for IC50: 0.01 to 10.0 μM
Description: VEGF Stimulated Ca^++ Signal In Vitro
(§1) Automated FLIPR (Fluorometric Imaging Plate Reader) technology was used to screen for inhibitors of VEGF induced increases in intracellular calcium levels in fluorescent dye loaded endothelial cells. HUVEC (human umbilical vein endothelial cells) (Clonetics) were seeded in 96-well fibronectin coated black-walled plates overnight at 37° C./5% CO2. Cells were loaded with calcium indicator Fluo-4 for 45 minutes at 37° C. Cells were washed 4 times (Original Cell Wash, Labsystems) to remove extracellular dye. Test compounds were reconstituted in 100% DMSO and added to the cells to give a final DMSO concentration of 0.1%. For screening, cells were pre-incubated with test agents for 30 minutes, at a single concentration (10 μM) or at concentrations ranging from 0.01 to 10.0 μM followed by VEGF stimulation (5 ng/mL). Changes in fluorescence at 516 nm were measured simultaneously in all 96 wells using a cooled CCD camera. Data were generated by determining max-min fluorescence levels for unstimulated, stimulated, and drug treated samples. IC50 values for test compounds were calculated from % inhibition of VEGF stimulated responses in the absence of inhibitor. Protocol for KDR Assay: KDR Assay: The cytoplasmic domain of the human VEGF receptor (VEGFR-2) was expressed as a Histidine-tagged fusion protein following infection of insect cells using an engineered baculovirus. His-VEGFR-2 was purified to homogeneity, as determined by SDS-PAGE, using nickel resin chromatography. Kinase assays were performed in 96 well microtiter plates that were coated overnight with 30 μg of poly-Glu-Tyr (4:1) in 10 mM Phosphate Buffered Saline (PBS), pH 7.2-7.4. The plates were incubated with 1% BSA and then washed four times with PBS prior to starting the reaction. Reactions were carried out in 120 μL reaction volumes containing 3.6 μM ATP in kinase buffer (50 mM Hepes buffer pH 7.4, 20 mM MgCl2, 0.1 mM MnCl2 and 0.2 mM Na3VO4). Test compounds were reconstituted in 100% DMSO and added to the reaction to give a final DMSO concentration of 5%. Reactions were initiated by the addition 0.5 ng of purified protein. Following a ten minute incubation at 25° C., the reactions were washed four times with PBS containing 0.05% Tween-20. 100 μl of a monoclonal anti-phosphotyrosine antibody-peroxidase conjugate was diluted 1:10000 in PBS-Tween-20 and added to the wells for 30 minutes. Following four washes with PBS-Tween-20, 100 μl of O-phenylenediamine Dihydrochloride in Phosphate-citrate buffer, containing urea hydrogen peroxide, was added to the wells for 7 minutes as a colorimetric substrate for the peroxidase. The reaction was terminated by the addition of 100 μl of 2.5N H2SO4 to each well and read using a microplate ELISA reader set at 492 nm. IC50 values for compound inhibition were calculated directly from graphs of optical density (arbitrary units) versus compound concentration following subtraction of blank values. VEGF-induced Dermal Extravasation in Guinea Pig (Miles Assay). Male Hartley guinea pigs (300-600 g) were anesthetized with isofluorane, sheared, and given a single dose of drug or the respective vehicle. The guinea pigs were dosed orally unless indicated otherwise in Table 3. Ten minutes prior to the end of drug treatment, guinea pigs were anesthetized with isofluorane, and 0.5% Evans blue dye (EBD) in PBS (13-15 mg/kg dose of EBD) was injected intravenously. After 5 minutes, triplicate intradermal injections of 100 ng rhVEGF165 in 100 μl PBS and of 100 μl PBS alone were administered on the flank. After 20 minutes, each animal was euthanized with Pentosol, and the skin containing the intradermal injection sites was removed for image analysis.

[3] = biological target: T1, cytoplasmic domain of the human VEGF receptor (VEGFR-2) (Homo sapiens, UniProt P35968); experiment: KDR Assay; type: biochemical; details: His-VEGFR-2; 3.6 μM ATP
T1 construct: The cytoplasmic domain of the human VEGF receptor (VEGFR-2) was expressed as a Histidine-tagged fusion protein; His (Histidine tag); made in house; host or cells: insect cells (baculovirus)
Description: as §1, with “Following four washes with PBS-Tween-20, 100 μl of O-phenylenediamine Dihydrochloride in Phosphate-citrate buffer, containing urea hydrogen peroxide, was added to the wells for 7 minutes as a colorimetric substrate for the peroxidase.” left out, “VEGF-induced Dermal Extravasation in Guinea Pig (Miles Assay). Male Hartley guinea pigs (300-600 g) were anesthetized with isofluorane, sheared, and given a single dose of drug or the respective vehicle. The guinea pigs were dosed orally unless indicated otherwise in Table 3. Ten minutes prior to the end of drug treatment, guinea pigs were anesthetized with isofluorane, and 0.5% Evans blue dye (EBD) in PBS (13-15 mg/kg dose of EBD) was injected intravenously. After 5 minutes, triplicate intradermal injections of 100 ng rhVEGF165 in 100 μl PBS and of 100 μl PBS alone were administered on the flank. After 20 minutes, each animal was euthanized with Pentosol, and the skin containing the intradermal injection sites was removed for image analysis.” left out

T1 sequence (P35968 786-1356 limits assumed): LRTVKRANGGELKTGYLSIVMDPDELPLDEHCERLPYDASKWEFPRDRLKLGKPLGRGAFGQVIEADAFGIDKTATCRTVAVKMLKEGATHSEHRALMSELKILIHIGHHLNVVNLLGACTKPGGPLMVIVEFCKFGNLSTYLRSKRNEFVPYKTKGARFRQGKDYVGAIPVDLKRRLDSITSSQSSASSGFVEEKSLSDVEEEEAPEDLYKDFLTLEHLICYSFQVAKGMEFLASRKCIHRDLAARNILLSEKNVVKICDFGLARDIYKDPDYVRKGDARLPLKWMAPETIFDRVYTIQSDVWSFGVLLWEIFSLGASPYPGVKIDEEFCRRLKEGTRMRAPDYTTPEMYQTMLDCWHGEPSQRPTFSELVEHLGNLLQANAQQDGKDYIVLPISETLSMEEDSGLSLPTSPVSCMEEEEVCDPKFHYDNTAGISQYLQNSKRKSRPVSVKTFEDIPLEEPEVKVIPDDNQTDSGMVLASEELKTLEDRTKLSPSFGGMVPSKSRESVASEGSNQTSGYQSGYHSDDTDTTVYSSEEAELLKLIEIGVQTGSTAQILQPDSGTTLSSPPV

CCN(CC)CCCOc1ccc(NC=C2C(=O)Nc3ccccc32)cc1 [Example 214, 3-{[4-(3-Diethylamino-propoxy)-phenylamino]-methylene}-1,3-dihydro-indol-2-one]
inhibition in vivo at 80 mg/kg ([1]; Rattus norvegicus, 240 h, 80 mg/kg (sid), corn oil, oral): 85%

Cc1cccc2c1C(=CNc1ccc(NCCN3CCOCC3)cc1)C(=O)N2 [Example 242, 4-Methyl-3-{[4-(2-morpholin-4-yl-ethylamino)-phenylamino]-methylene}-1,3-dihydro-indol-2-one]
VEGF Stimulated Ca^++ signal assay % inhibition @ 10 μM [2]: 95.82%

4-(5-Chloro-2-oxo-1,2-dihydro-indol-3-ylidenemethyl)-6-indazolylamine [Example 103]
VEGF Stimulated Ca^++ signal assay % inhibition @ 10 μM [2]: 96.59% | IC50 [2]: 1040 nM | IC50 [3]: 480 nM

O=C1Nc2ccccc2C1=CNc1ccc2c(c1)OCO2 [Example 80, 3-[(3,4-Methylenedioxyphenylamino)-methylene]-11,3-dihydro-indol-2-one]
VEGF Stimulated Ca^++ signal assay % inhibition @ 10 μM [2]: 3.50%

COc1ccc(NC=C2C(=O)Nc3ccc(Cl)cc32)cc1F [Example 105, 5-Chloro-3-[(3-fluoro-4-methoxyphenylamino)-methylene]-1,3-dihydro-indol-2-one]
inhibition at 10 µM ([2]; Homo sapiens): 17.5%

CCN(CC)Cc1cc(NC=C2C(=O)Nc3cccc(C)c32)ccc1O [Example 161, 3-[(3-Diethylaminomethyl-4-hydroxy-phenylamino)-methylene]-4-methyl-1,3-dihydro-indol-2-one]
IC50 [3]: 160 nM

O=C1Nc2ccc(F)cc2C1=CNc1ccc(N2CCCCC2)cc1 [Example 221]
inhibition at 10 µM ([2]; Homo sapiens): 97.6% | IC50 ([2]; Homo sapiens): ≤ 1000 nM | IC50 [3]: 380 nM

CC(O)c1ccc(NC=C2C(=O)Nc3ccc(Cl)cc32)cc1 (stereo not shown) [Example 72, 5-Chloro-3-{[4-(1-hydroxy-ethyl)-phenylamino]-methylene}-1,3-dihydro-indol-2-one]
VEGF Stimulated Ca^++ signal assay % inhibition @ 10 μM [2]: 81.50% | IC50 [2]: 1560 nM

O=C1Nc2ccccc2C1=CNc1ccc(N2CCOCC2)cc1 [Example 40]
CNV Assay % inhibition (result in words) ([1]; 100 mg/kg (sid), PEG400, oral): toxic

O=C1Nc2ccccc2C1=CNc1cccc(Br)c1 [Example 2]
VEGF Stimulated Ca^++ signal assay % inhibition @ 10 μM [2]: −0.5%

Cc1cccc2c1C(=CNc1ccc(C(=O)O)c(O)c1)C(=O)N2 [Example 155, 2-Hydroxy-4-[(4-methyl-2-oxo-1,2-dihydro-indol-3-ylidenemethyl)-amino]-benzoic acid]
IC50 [3]: 400 nM
